Measurements from patent US10696693B2, “Fused imidazole derivatives as TGF-beta inhibitors” (Rigel Pharmaceuticals, Inc., priority 2014, dated 2020).
Like-named read-outs stand apart in the source and are kept apart here.

Assays:
[1] = system: GDF8; assay: AlphaScreen SureFire p-SMAD3 (Ser423/425) assay, GDF8-stimulated cells; assay type: cell-based
How it was run: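 Lysate (5 μL) went into 384-well shallow plates with 5 μL of Reaction Buffer, Activation Buffer and AlphaScreen Acceptor bead mix. Plates were sealed, kept dark and shaken for 2 hours at room temperature. Donor beads in dilution buffer (2 μL) were added for another 1½ hours, and p-SMAD3 signal was read on a Synergy-4 or Enspire reader.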

[2] = system: TGF-β; assay: AlphaScreen SureFire p-SMAD3 (Ser423/425) assay, TGF-β-stimulated cells; assay type: cell-based
How it was run: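 The p-SMAD-3 (Ser423/425) SureFire assay measured phosphorylation of endogenous SMAD-3 in cell lysates. Cells were plated overnight in collagen-coated plates, exposed to three-fold serially diluted compounds for about 10 minutes, then stimulated with TGFβ. Lysates (5 μL) received acceptor bead mix for 2 hours, then donor beads for 1½ hours before AlphaScreen reading.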

[3] = Mus musculus, MPC-11, p-SMAD3 (Ser423/425) AlphaScreen in cell lysate, MPC11, GDF8 stimulation, read-out: GDF8: inhibition of GDF8 signaling, GDF pSMAD (MPC11)
[4] = Mus musculus, p-SMAD3 (Ser423/425) AlphaScreen in cell lysate, MPC-11, TGF-β stimulation, read-out: TGF-β: inhibition of TGF-β signaling, TGF-β pSMAD (MPC-11)
[5] = Mus musculus, MPC-11, read-out: GDF8: inhibition of GDF8 signaling, GDF pSMAD (MPC11), p-SMAD3 (Ser423/425) AlphaScreen in cell lysate, GDF8 stimulation
[6] = Mus musculus, MPC-11, read-out: TGF-β: inhibition of TGF-β signaling, TGF-β pSMAD (MPC-11), p-SMAD3 (Ser423/425) AlphaScreen in cell lysate, TGF-β stimulation

IC50 [1, 3] | IC50 [2, 4] | SMILES | IC50 [1, 5] | IC50 [2, 6] | also measured
100 to 1000 nM | 100 to 1000 nM | Fc1cc(F)c(-c2nc3n(c2-c2ccc4cn[nH]c4c2)CCC3)cc1F [Compound 217, 6-(2-(2,4,5-trifluorophenyl)-6,7-dihydro-5H-pyrrolo[1,2-a]imidazol-3-yl)-1H-indazole] | – | – | –
– | – | Cc1cc(-c2nc3n(c2-c2ccc4nccnc4c2)CCC3)c(Cl)cc1F [Compound 321, 6-(2-(2-chloro-4-fluoro-5-methylphenyl)-6,7-dihydro-5H-pyrrolo[1,2-a]imidazol-3-yl)quinoxaline] | – | – | IC50 ([1]; read-out: GDF8: inhibition of GDF8 signaling, GDF pSMAD (MPC11), p-SMAD3 (Ser423/425) AlphaScreen in cell lysate, GDF8 stimulation): > 1000 nM; IC50 ([2]; read-out: TGF-β: inhibition of TGF-β signaling, TGF-β pSMAD (MPC-11), p-SMAD3 (Ser423/425) AlphaScreen in cell lysate, TGF-β stimulation): > 1000 nM
> 1000 nM | > 1000 nM | Cc1ccc(-c2nc3n(c2-c2ccc4ncsc4c2)CCC3)c(F)c1F [Compound 249, 6-(2-(2,3-difluoro-4-methylphenyl)-6,7-dihydro-5H-pyrrolo[1,2-a]imidazol-3-yl)benzo[d]thiazole] | – | – | –
< 50 nM | < 50 nM | c1ccc(C2=C(c3ccc4[nH]ncc4c3)C3CCCC3=N2)nc1 (stereo not shown) [Compound 365, 5-(2-(pyridin-2-yl)-3a,4,5,6-tetrahydrocyclopenta[b]pyrrol-3-yl)-1H-indazole] | – | – | –
100 to 1000 nM | > 1000 nM | Fc1ccc(-c2nc3n(c2-c2ccc4nccn4c2)CCC3)cc1F [Compound 10] | – | – | –
– | – | Fc1ccc(-c2nc3n(c2-c2ccc4ncsc4c2)CCC3)cc1 [Compound 174, 6-(2-(4-fluorophenyl)-6,7-dihydro-5H-pyrrolo[1,2-a]imidazol-3-yl)benzo[d]thiazole] | 50 to 100 nM | 100 to 1000 nM | –
– | – | COCCOc1cnc2ccc(-c3c(-c4ccc(F)c(Cl)c4)nc4n3CCC4)cc2n1 [Compound 355, 7-(2-(3-chloro-4-fluorophenyl)-6,7-dihydro-5H-pyrrolo[1,2-a]imidazol-3-yl)-2-(2-methoxyethoxy)quinoxaline] | 100 to 1000 nM | 100 to 1000 nM | –
> 1000 nM | > 1000 nM | COc1c(C)cc(-c2nc3n(c2-c2ccc4ncsc4c2)CCC3)cc1C [Compound 257, 6-(2-(4-methoxy-3,5-dimethylphenyl)-6,7-dihydro-5H-pyrrolo[1,2-a]imidazol-3-yl)benzo[d]thiazole] | – | – | –
– | – | OCC1CCC2(CC1)Cc1nc(-c3ccc(F)cc3)c(-c3ccc4ncnn4c3)n1C2 (stereo not shown) [Compound 75, (3′-([1,2,4]triazolo[1,5-a]pyridin-6-yl)-2′-(4-fluorophenyl)-5′H,7′H-spiro[cyclohexane-1,6′-pyrrolo[1,2-a]imidazol]-4-yl)methanol] | > 1000 nM | > 1000 nM | –
50 to 100 nM | 100 to 1000 nM | Cc1cc(-c2nc3n(c2-c2ccc4ncnn4c2)CCC3)c(Cl)cc1F [Compound 69, 6-(2-(2-chloro-4-fluoro-5-methylphenyl)-6,7-dihydro-5H-pyrrolo[1,2-a]imidazol-3-yl)-[1,2,4]triazolo[1,5-a]pyridine] | – | – | –
< 50 nM | 100 to 1000 nM | Cc1cccc(-c2nc3n(c2-c2ccc4nccnc4c2)CCC3)c1 [Compound 180, 6-(2-(m-tolyl)-6,7-dihydro-5H-pyrrolo[1,2-a]imidazol-3-yl)quinoxaline] | – | – | –
> 1000 nM | > 1000 nM | Cc1cc(-c2nc3n(c2-c2ccc4nccn4c2)CCC3)cc(C)c1F [Compound 43, 6-(2-(4-fluoro-3,5-dimethylphenyl)-6,7-dihydro-5H-pyrrolo[1,2-a]imidazol-3-yl)imidazo[1,2-c]pyridine] | – | – | –
– | – | Fc1ccc(-c2nc3n(c2-c2ccc4ncsc4c2)CC2(CCCC2)C3)cc1 [Compound 325, 6-(2′-(4-fluorophenyl)-5′H,7′H-spiro[cyclopentane-1,6′-pyrrolo[1,2-a]imidazol]-3′-yl)benzo[d]thiazole] | > 1000 nM | > 1000 nM | –
> 1000 nM | > 1000 nM | CNC(=O)C1CCC2(CC1)Cc1nc(-c3ccc(F)cc3)c(-c3ccc4ncnn4c3)n1C2 (stereo not shown) [Compound 78, 3′-([1,2,4]triazolo[1,5-a]pyridin-6-yl)-2′-(4-fluorophenyl)-N-methyl-5′H,7′H-spiro[cyclohexane-1,6′-pyrrolo[1,2-a]imidazole]-4-carboxamide] | – | – | –
100 to 1000 nM | > 1000 nM | Fc1cc(-c2nc3n(c2-c2ccc4ncsc4c2)CCC3)c(F)cc1Cl [Compound 240, 6-(2-(4-chloro-2,5-difluorophenyl)-6,7-dihydro-5H-pyrrolo[1,2-a]imidazol-3-yl)benzo[d]thiazole] | – | – | –
> 1000 nM | > 1000 nM | Fc1cc(-c2nc3n(c2-c2ccc4ncccc4c2)CCC3)c(F)cc1Cl [Compound 242, 6-(2-(4-chloro-2,5-difluorophenyl)-6,7-dihydro-5H-pyrrolo[1,2-a]imidazol-3-yl)quinoline] | – | – | –

IC50 [1, 3] | IC50 [2, 4] | SMILES | IC50 [1, 5] | IC50 [2, 6] | also measured
100 to 1000 nM | 100 to 1000 nM | Clc1cccc(-c2nc3n(c2-c2ccc4nccn4c2)CCC3)c1 [Compound 6, 6-(2-(3-chlorophenyl)-6,7-dihydro-5H-pyrrolo[1,2-a]imidazol-3-yl)imidazo[1,2-a]pyridine] | – | – | –
100 to 1000 nM | 100 to 1000 nM | OCC1Cn2c(nc(-c3cc(F)cc(F)c3F)c2-c2ccc3nccnc3c2)N1 (stereo not shown) [Compound 124, (5-(quinoxalin-6-yl)-6-(2,3,5-trifluorophenyl)-2,3-dihydro-1H-imidazo[1,2-a]imidazol-2-yl)methanol] | – | – | –
< 50 nM | 50 to 100 nM | NC(=O)c1cnc2ccc(-c3c(-c4ccc(F)c(Cl)c4)nc4n3CCC4)cn12 [Compound 51, 6-(2-(3-chloro-4-fluorophenyl)-6,7-dihydro-5H-pyrrolo[1,2-c]imidazol-3-yl)imidazo[1,2-c]pyridine-3-carboxamide] | – | – | –
< 50 nM | < 50 nM | Fc1ccc(Cl)cc1-c1nc2n(c1-c1ccc3ncnn3c1)CCC2 [Compound 82, 6-(2-(5-chloro-2-fluoro)-6,7-dihydro-5H-pyrrolo[1,2-a]imidazol-3-yl)-[1,2,4]triazolo[1,5-a]pyridine] | – | – | –
– | – | Cc1cc(-c2nc3n(c2-c2ccc4nccnc4c2)CCC3)c(C)cc1F [Compound 310, 6-(2-(4-fluoro-2,5-dimethylphenyl)-6,7-dihydro-5H-pyrrolo[1,2-a]imidazol-3-yl)quinoxaline] | 100 to 1000 nM | > 1000 nM | –
– | – | Fc1cc(F)c(F)c(-c2nc3n(c2-c2ccc4ncsc4c2)CCC3)c1 [Compound 235, 6-(2-(2,3,5-trifluorophenyl)-6,7-dihydro-5H-pyrrolo[1,2-a]imidazol-3-yl)benzo[d]thiazole] | 100 to 1000 nM | 100 to 1000 nM | –
< 50 nM | < 50 nM | CC(=O)N1CCn2c1nc(-c1cc(F)cc(F)c1F)c2-c1ccc2ncnn2c1 [Compound 109, 1-(5-([1,2,4]triazolo[1,5-a]pyridin-6-yl)-6-(2,3,5-trifluorophenyl)-2,3-dihydro-1H-imidazo[1,2-a]imidazol-1-yl)ethan-1-one] | – | – | –
– | – | O=C(O)C1CCC2(CC1)Cc1nc(-c3ccc(F)cc3)c(-c3ccc4nccnc4c3)n1C2 (stereo not shown) [Compound 334, 2′-(4-fluorophenyl)-3′-(quinoxalin-6-yl)-5′H,7′H-spiro[cyclohexane-1,6′-pyrrolo[1,2-a]imidazole]-4-carboxylic acid] | > 1000 nM | > 1000 nM | –
– | – | Clc1ccc(Cl)c(-c2nc3n(c2-c2ccc4ncccc4c2)CCC3)c1 [Compound 343, 6-(2-(2,5-dichlorophenyl)-6,7-dihydro-5H-pyrrolo[1,2-a]imidazol-3-yl)quinoline] | 100 to 1000 nM | 100 to 1000 nM | –
> 1000 nM | > 1000 nM | Fc1cccc(F)c1-c1nc2n(c1-c1ccc3ncccc3c1)CCC2 [Compound 216, 6-(2-(2,6-difluorophenyl)-6,7-dihydro-5H-pyrrolo[1,2-a]imidazol-3-yl)quinoline] | – | – | –
– | – | OCC1CCC2(CC1)Cc1nc(-c3ccc(F)cc3)c(-c3ccc4ncsc4c3)n1C2 (stereo not shown) [Compound 335, (3′-(benzo[d]thiazol-6-yl)-2′-(4-fluorophenyl)-5′H,7′H-spiro[cyclohexane-1,6′-pyrrolo[1,2-a]imidazol]-4-yl)methanol] | > 1000 nM | > 1000 nM | –
– | – | Fc1cc(F)cc(-c2nc3n(c2-c2ccc4[nH]ncc4c2)CCC3)c1 [Compound 230, 5-(2-(3,5-difluorophenyl)-6,7-dihydro-5H-pyrrolo[1,2-a]imidazol-3-yl)-1H-indazole] | 100 to 1000 nM | > 1000 nM | –
100 to 1000 nM | 100 to 1000 nM | Fc1ccc(-c2nc3n(c2-c2ccc4nccn4c2)CCC3)cc1 [Compound 2] | – | – | –
50 to 100 nM | 100 to 1000 nM | Cc1cc(-c2nc3n(c2-c2ccc4nccnc4c2)CCC3)ccc1F [Compound 179, 6-(2-(4-fluoro-3-methylphenyl)-6,7-dihydro-5H-pyrrolo[1,2-a]imidazol-3-yl)quinoxaline] | – | – | –
< 50 nM | 50 to 100 nM | Cc1cccc(-c2nc3n(c2-c2ccc4[nH]ncc4c2)CCC3)c1 [Compound 168, 5-(2-(m-tolyl)-6,7-dihydro-5H-pyrrolo[1,2-a]imidazol-3-yl)-1H-indazole] | – | – | –
100 to 1000 nM | > 1000 nM | Fc1ccc(-c2nc3n(c2-c2ccc4nccnc4c2)CCC3)c(F)c1F [Compound 224, 6-(2-(2,3,4-trifluorophenyl)-6,7-dihydro-5H-pyrrolo[1,2-a]imidazol-3-yl)quinoxaline] | – | – | –
